Measured values published in patent publication US20210238551A1, “Method for Generating Regulatory T Cells” (Osaka University, priority 2018, published 2021).

Assays:
[1] = tested on: human CD4+ CD25- CD45RA+ T cells; test: Bisulfite sequencing of demethylation in Foxp3 CNS2 region in regulatory T cells induced from human T cells; type: cell-based; conditions: combined with ascorbic acid, FIG. 13
Description: (§1) Genomic DNA was obtained from induced cells, treated with MethylEasy Xceed Rapid DNA Bisulphite Modification Kit (Human Genetic Signatures), and then examined for demethylations in genes specific to regulatory T cells. The demethylations in each gene were analyzed by using known methods and primers (Floess et al. (2007) PloS Biology Volume 5, Issue 2, e38, and Ohkura et al. (2012) Immunity 37(5) 785-799).
(§2) For the analysis in mouse Foxp3 CNS2 region, 5′-[…]-3′ (SEQ ID NO: 1) was used as the primer on the forward side, and 5′-[…]-3′ (SEQ ID NO: 2) was used as the primer on the reverse side. For the analysis in human Foxp3 CNS2 region, 5′-[…]-3′ (SEQ ID NO: 3) was used as the primer on the forward side, and 5′-[…]-3′ (SEQ ID NO: 4) was used as the primer on the reverse side.
Human CD4^+ CD25^− CD45RA^+ T cells (human T cells) were stimulated in the basal medium comprising anti-CD3 antibody, anti-CD28 antibody, and IL-2 for 3 days. The cells were then cultured for pretreatment in the basal medium supplemented with only IL-2 for 4 days. […]

[2] = tested on: mouse naïve T cells; test: Bisulfite sequencing of regulatory T cell-specific demethylation in regulatory T cells induced from mouse naïve T cells; type: cell-based; conditions: 10 μg/ml or 30 μg/ml ascorbic acid in basal medium, Example 1 culture system, FIG. 3
Description: as §1, §2
Mouse naïve T cells were obtained from lymph nodes of eFox reporter mice by FACS. […] We analyzed regulatory T cell-specific demethylation sites and commonly methylation sites in Foxp3, CTLA4, Eos, and Helios. […]

[3] = tested on: human T cells; conditions: existing methods, Non-patent literature 3; cited from earlier work

O=C1O[C@H]([C@@H](O)CO)C(O)=C1O [ascorbic acid]
demethylation effect in human T cell-derived regulatory T cells [1]: demethylation effect of ascorbic acid was also observed | degree of demethylations at regulatory T cell-specific sites on adding ascorbic acid [2]: degree of the demethylations was further increased | induction of regulatory T cell-specific demethylations in human T cells [3]: cannot induce regulatory T cell-specific demethylations in human T cells
